Assay results as given in paper PMC3480357, “Fragment-Hopping-Based Discovery of a Novel Chemical Series of Proto-Oncogene PIM-1 Kinase Inhibitors” (PLoS ONE, 2012).
Where two headings read alike, the source gives them in different places.

Experiments:
[1] = Metabolic stability in liver microsomes (Mouse); assay type: in vitro ADME; conditions: 1 µM, 15 minutes
MST1 = target: T1, MST1 (Homo sapiens, UniProt Q13043); experiment: ProQinase kinase panel, % inhibition at fixed concentration; assay type: biochemical; conditions: for inhibition at 10 µM: inhibitor at 10 µM
T1 sequence (Q13043 1-487): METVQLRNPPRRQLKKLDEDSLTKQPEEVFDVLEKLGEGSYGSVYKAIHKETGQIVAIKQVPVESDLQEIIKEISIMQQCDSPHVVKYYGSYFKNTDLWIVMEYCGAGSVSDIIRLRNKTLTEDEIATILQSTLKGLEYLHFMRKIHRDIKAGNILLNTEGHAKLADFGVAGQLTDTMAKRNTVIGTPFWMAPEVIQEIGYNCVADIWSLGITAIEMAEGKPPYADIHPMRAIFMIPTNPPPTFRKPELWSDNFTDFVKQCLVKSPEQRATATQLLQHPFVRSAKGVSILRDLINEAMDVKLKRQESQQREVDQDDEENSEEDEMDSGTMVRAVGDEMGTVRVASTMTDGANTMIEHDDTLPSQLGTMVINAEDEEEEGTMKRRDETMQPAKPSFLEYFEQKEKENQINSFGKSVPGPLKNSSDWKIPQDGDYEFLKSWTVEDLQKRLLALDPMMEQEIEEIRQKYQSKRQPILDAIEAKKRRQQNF
Protocol: (§1) Once compounds 7 and 8 were synthesized, a pairwise comparison was performed to strictly evaluate the real impact of this fragment-hopping where imidazopyridazine is replaced by triazolopyridine.

PAMPA passive diffusion = assay type: in vitro ADME; conditions: LC/MS/MS after 4 hours of incubation at 2 µM; for Papp at 4 h, 2 µM: PAMPA, read-out: PAMPA Pe
Protocol: Therefore, to obtain more detailed information on this critical point, preliminary in vitro ADME profiling was performed for molecule 3. This profiling was mainly focused on hERG activity and on pharmacokinetics parameters, such as metabolic stability and PAMPA (an in vitro model for passive diffusion).

MEK1 = MEK1 (Homo sapiens, UniProt Q02750); experiment: ProQinase kinase panel, % inhibition at fixed concentration; assay type: biochemical; conditions: read-out: MEK1 percentage of inhibition
MEK1, sequence (Q02750 whole entry, species assumed): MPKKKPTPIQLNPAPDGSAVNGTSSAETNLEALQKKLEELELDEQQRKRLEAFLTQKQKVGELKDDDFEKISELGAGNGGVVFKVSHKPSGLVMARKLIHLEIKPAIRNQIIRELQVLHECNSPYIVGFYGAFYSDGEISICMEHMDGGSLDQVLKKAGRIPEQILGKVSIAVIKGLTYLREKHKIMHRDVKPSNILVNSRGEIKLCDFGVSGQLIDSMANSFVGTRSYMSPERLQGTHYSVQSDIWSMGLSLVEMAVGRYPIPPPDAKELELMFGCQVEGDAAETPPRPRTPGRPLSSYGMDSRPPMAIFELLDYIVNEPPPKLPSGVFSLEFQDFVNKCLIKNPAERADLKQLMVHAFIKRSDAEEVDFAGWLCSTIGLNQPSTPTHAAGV
Protocol: (§2) Off-target selectivity profiling was also performed for compounds 3 and 8 against a panel of 20 kinases (Table 3). […] When taking the differences in screening concentrations into consideration, we can only make unequivocal conclusions about FLT3 (based on the IC50 determination). […] The slight improvement observed for the remainder of the screened targets was likely due to the difference in concentrations.

IKK-β = IKK-β (Homo sapiens, UniProt O14920); experiment: as above; assay type: biochemical; conditions: average of two data points, read-out: IKK-β percentage of inhibition
IKK-β, sequence (O14920 whole entry, species assumed): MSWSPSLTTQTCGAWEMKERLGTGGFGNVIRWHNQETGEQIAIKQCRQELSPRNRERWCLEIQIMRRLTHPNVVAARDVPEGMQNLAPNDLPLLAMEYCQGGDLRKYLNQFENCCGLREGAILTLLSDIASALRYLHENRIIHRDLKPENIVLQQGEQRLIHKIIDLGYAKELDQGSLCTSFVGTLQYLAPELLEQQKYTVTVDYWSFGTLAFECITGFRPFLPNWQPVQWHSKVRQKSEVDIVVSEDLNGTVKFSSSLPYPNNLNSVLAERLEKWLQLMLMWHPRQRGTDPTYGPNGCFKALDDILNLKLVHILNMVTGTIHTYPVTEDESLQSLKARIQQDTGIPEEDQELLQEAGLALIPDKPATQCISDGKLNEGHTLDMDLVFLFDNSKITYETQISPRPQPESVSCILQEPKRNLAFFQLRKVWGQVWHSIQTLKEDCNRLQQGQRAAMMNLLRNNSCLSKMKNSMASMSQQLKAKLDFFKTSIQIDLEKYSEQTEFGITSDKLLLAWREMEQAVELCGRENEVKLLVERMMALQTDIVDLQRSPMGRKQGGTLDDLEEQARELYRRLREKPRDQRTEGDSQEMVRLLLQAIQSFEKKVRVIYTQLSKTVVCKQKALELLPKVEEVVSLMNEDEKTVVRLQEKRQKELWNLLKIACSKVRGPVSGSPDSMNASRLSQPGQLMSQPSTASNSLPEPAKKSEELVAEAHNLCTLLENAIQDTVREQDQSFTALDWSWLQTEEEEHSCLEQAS
Protocol: as §2

[2] = Metabolic stability in liver microsomes (Rat); assay type: in vitro ADME; conditions: 1 µM, 15 minutes
FLT3 = target: T2, FLT3 (Homo sapiens, UniProt P36888); experiment: FLT3 kinase ADP Hunter Plus assay; assay type: biochemical; conditions: for FLT3 experimental hit classification: hit definition IC50 < 10µM
T2 construct: purchased Invitrogen PV3182
T2 sequence (P36888 564-993 limits assumed): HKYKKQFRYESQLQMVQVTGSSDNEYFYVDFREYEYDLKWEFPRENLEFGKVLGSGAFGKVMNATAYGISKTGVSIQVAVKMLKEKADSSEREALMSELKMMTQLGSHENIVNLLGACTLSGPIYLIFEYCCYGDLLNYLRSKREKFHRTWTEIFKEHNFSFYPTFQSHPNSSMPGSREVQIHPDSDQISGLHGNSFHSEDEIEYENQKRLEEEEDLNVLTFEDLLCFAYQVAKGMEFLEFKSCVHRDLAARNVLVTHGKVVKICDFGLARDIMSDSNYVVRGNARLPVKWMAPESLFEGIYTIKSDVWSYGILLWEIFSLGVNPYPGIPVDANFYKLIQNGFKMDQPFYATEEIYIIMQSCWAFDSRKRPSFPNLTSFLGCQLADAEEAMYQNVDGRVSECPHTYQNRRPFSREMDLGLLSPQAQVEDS
Protocol: Kinase activity was measured with the commercial ADP Hunter™ Plus assay (DiscoveRx Ref. #33-016), a homogeneous assay measuring ADP accumulation, as a universal product of kinase activity. The assay was conducted following the manufacturer’s recommendations and adapting the protein and substrate concentrations for optimal conditions. The kinase assay buffer was 15 mM HEPES, pH 7.4, 20 mM NaCl, 1 mM EGTA, 0.02% Tween-20, 10 mM MgCl2 and 0.1 mg/ml BGG (bovine γ-globulin). All PIM kinase assays were performed with 100 µM ABLtide ([…]) from GenScript as the peptide substrate and 100 µM ATP. Protein concentration (from Invitrogen, PV3182) was 0.4 ng/µl. To calculate the IC50 of the ETP-compounds, serial 1∶3 dilutions were prepared and the reaction was started with the addition of ATP. The reaction was incubated for 1 h at 37°C. Reagents A and B (DiscoveRx) were sequentially added to the wells, and the plates were incubated for 30 min at 25°C. Fluorescence counts were read in an EnVision 2104 Multilabel Reader (Perkin Elmer) with the recommended settings (544 and 580 nm as the excitation and emission wavelengths, respectively). Values were plotted against the inhibitor concentrations and fit to a sigmoid dose–response curve using ActivityBase software.

[3] = Metabolic stability in liver microsomes (Human); assay type: in vitro ADME; conditions: for Met. Stab. (Human), percentage of the original compound that remained: 1 µM, liver microsomes, 15 minutes
FGF-R1 = FGF-R1 (Homo sapiens, UniProt P11362); parameters: method as in PMID 21051136; conditions: 10 µM; average of two data points; cited from earlier work
FGF-R1, sequence (P11362 22-822, species assumed): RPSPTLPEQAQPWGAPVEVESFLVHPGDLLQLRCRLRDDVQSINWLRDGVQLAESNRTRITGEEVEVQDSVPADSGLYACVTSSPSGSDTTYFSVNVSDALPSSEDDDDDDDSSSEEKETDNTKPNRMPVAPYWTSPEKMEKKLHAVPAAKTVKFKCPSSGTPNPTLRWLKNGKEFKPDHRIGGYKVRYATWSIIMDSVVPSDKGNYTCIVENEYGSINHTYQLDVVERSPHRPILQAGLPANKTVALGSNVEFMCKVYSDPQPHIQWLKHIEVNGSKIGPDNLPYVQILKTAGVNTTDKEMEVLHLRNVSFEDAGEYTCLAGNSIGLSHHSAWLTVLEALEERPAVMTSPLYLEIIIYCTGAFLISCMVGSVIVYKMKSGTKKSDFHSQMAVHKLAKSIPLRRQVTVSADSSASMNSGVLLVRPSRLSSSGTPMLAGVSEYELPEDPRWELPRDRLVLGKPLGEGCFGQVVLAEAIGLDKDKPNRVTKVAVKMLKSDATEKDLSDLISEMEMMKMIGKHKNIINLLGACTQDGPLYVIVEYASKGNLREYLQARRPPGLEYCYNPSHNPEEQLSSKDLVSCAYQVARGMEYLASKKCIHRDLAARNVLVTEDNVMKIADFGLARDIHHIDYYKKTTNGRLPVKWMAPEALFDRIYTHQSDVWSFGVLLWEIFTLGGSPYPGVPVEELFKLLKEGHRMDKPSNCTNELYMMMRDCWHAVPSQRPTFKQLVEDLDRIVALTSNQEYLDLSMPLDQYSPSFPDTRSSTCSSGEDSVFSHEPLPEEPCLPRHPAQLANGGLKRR

PIM-3 = PIM-3 (Homo sapiens, UniProt Q86V86); parameters: method as in PMID 21051136; conditions: cited from earlier work
JNK1 [4] = target: T3, JNK1 (Homo sapiens, UniProt P45983); parameters: method as in PMID 21051136; conditions: 10 µM; average of two data points; cited from earlier work
T3 sequence (P45983 whole entry, species assumed): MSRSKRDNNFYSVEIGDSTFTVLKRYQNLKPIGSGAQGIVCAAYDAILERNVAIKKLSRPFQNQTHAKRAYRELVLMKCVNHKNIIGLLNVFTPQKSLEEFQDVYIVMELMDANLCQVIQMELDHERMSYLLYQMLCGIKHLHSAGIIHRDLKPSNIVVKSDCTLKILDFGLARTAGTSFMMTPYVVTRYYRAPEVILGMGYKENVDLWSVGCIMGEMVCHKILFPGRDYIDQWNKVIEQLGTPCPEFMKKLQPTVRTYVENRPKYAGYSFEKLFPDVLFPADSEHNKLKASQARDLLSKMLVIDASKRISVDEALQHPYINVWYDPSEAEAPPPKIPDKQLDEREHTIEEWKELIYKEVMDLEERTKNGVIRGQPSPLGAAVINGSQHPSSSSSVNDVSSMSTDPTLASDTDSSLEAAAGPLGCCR

INS-R = INS-R (Homo sapiens, UniProt P06213); parameters: method as in PMID 21051136; conditions: 10 µM; average of two data points; cited from earlier work
KIT = KIT (Homo sapiens, UniProt P10721); experiment: ProQinase kinase panel, % inhibition at fixed concentration; assay type: biochemical
KIT, sequence (P10721 26-976, species assumed): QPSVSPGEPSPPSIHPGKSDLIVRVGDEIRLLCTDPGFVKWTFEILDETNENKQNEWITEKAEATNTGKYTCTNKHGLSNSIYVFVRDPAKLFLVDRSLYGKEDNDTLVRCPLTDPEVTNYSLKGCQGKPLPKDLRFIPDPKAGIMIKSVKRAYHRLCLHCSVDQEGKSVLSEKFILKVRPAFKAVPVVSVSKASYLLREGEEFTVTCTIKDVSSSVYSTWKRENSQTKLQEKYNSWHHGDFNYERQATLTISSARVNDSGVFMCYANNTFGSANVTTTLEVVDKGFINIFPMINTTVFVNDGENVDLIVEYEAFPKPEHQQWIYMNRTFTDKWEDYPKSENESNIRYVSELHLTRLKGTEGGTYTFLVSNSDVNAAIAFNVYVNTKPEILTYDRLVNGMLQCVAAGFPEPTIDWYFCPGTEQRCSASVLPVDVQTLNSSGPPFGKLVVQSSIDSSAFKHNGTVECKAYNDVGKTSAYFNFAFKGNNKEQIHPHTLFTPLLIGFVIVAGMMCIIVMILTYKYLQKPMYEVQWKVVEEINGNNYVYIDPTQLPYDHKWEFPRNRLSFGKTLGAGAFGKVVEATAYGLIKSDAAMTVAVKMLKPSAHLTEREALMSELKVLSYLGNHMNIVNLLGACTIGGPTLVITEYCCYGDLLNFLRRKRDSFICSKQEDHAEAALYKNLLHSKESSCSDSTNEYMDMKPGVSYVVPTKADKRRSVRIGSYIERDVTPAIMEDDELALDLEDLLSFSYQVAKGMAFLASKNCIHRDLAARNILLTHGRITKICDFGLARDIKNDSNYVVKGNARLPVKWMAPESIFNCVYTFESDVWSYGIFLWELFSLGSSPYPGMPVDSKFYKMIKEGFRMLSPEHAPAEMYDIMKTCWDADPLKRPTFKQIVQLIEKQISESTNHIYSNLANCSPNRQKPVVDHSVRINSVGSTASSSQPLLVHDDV

PIM-2 = PIM-2 (Homo sapiens, UniProt Q9P1W9); experiment: PIM-2 kinase ADP Hunter Plus assay; assay type: biochemical; conditions: 100 µM ATP
PIM-2, sequence (Q9P1W9 whole entry): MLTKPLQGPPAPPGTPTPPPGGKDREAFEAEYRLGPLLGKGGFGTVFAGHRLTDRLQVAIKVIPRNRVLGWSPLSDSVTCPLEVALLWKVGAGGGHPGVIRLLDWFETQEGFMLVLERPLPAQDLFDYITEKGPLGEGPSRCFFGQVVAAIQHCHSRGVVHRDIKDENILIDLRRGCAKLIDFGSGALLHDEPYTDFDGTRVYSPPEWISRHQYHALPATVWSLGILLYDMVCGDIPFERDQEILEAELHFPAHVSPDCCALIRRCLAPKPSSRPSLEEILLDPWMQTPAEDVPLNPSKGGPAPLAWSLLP

FAK = FAK (Homo sapiens, UniProt Q05397); experiment: ProQinase kinase panel, % inhibition at fixed concentration; assay type: biochemical
FAK, sequence (Q05397 whole entry, species assumed): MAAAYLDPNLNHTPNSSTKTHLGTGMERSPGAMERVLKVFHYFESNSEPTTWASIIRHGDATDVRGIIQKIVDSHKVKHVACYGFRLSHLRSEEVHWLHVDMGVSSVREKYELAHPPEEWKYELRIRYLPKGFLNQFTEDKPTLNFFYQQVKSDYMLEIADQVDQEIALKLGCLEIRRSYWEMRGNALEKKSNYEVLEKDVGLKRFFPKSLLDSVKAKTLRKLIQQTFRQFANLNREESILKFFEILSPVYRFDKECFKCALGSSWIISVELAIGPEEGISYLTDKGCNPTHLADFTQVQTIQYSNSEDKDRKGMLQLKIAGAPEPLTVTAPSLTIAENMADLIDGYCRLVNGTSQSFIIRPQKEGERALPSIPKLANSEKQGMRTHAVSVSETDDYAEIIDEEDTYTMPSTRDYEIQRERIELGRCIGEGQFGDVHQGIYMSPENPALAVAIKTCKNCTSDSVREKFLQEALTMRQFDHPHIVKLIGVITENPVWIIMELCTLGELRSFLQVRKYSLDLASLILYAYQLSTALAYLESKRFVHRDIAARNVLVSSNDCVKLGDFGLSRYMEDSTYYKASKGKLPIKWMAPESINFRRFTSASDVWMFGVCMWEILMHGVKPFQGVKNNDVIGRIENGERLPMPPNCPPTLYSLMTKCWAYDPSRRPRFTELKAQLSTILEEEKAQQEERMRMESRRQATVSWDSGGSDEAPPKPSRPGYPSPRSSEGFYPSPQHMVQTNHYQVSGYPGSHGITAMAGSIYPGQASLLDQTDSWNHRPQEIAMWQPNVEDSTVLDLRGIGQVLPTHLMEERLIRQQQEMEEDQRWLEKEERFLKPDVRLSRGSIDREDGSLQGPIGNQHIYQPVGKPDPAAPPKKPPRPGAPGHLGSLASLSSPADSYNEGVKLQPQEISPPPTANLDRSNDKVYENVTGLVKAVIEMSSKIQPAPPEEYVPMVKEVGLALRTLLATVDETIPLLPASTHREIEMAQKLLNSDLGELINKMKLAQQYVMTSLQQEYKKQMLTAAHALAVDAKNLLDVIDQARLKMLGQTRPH

JNK1 [5] = target: T3, JNK1; experiment: as above; assay type: biochemical
Protocol: as §1

[6] = average of two data points, read-out: MST1 percentage of inhibition
[7] = ADP Hunter Plus, 100 µM ATP, read-out: FLT-3 IC50
[8] = hit definition % inhibition > 40, ligand at 5µM
[9] = compound 7 vs compound 1, 10 µM

CN1CCC(CNc2ccc3ncc(-c4cccc(OC(F)(F)F)c4)n3n2)CC1 [Compound 3, reference compound]
Met. Stab. (Mouse), percentage of the original compound that remained [1]: 5%
inhibition at 10 µM (MST1; [6]): 60%
Papp at 4 h, 2 µM (PAMPA passive diffusion): 0.0015 ×10⁻⁶ cm/s
inhibition at 10 µM (MEK1): 11%
inhibition at 10 µM (IKK-β; inhibitor at 10 µM): 0%
Met. Stab. (Rat), percentage of the original compound that remained [2]: 23%
IC50 (FLT3): 5 nM
Met. Stab. (Human), percentage of the original compound that remained [3]: 31%

Oc1ccc(-c2cnc3ccc(NCc4ccc(F)cc4)nn23)cc1 [Compound 1]
FGF-R1 percentage of inhibition (FGF-R1): 84%
IC50 (PIM-3): 79 nM
JNK1 percentage of inhibition (JNK1 [4]): 62%
INS-R percentage of inhibition (INS-R): 67%
IC50 (FLT3; [7]): 1 nM

CN1CCC(CNc2ccc3nnn(-c4cccc(OC(F)(F)F)c4)c3n2)CC1 [Compound 8, (1-Methyl-piperidin-4-ylmethyl)-[3-(3-trifluoromethoxy-phenyl)-3H-[1], [2], [3]triazolo[4,5-b]pyridin-5-yl]-amine]
Met. Stab. (Mouse), percentage of the original compound that remained [1]: 27%
KIT increment in percentage of inhibition (KIT; compound 8 (5 µM) versus compound 3 (10 µM)): > 50%
KIT improvement in percentage of inhibition (KIT; compound 8 (5 µM) vs compound 3 (10 µM)): c (This designation indicates that the improvement in percentage of inhibition was greater than 50%)
KIT experimental hit classification (KIT; [8]): hit
inhibition at 5 µM (KIT; inhibitor at 5 µM, average of two data points, read-out: KIT percentage of inhibition): 44%
inhibition at 5 µM (MST1; inhibitor at 5 µM, average of two data points, read-out: MST1 percentage of inhibition): 20%
PAMPA Pe (PAMPA passive diffusion): 0.74 10^-6 cm/s
Papp at 4 h, 2 µM (PAMPA passive diffusion): ~1 ×10⁻⁶ cm/s
inhibition at 5 µM (MEK1; inhibitor at 5 µM, average of two data points): 33%
inhibition at 5 µM (IKK-β; inhibitor at 5 µM): 3%
IC50 (PIM-2): 4950 nM
Met. Stab. (Rat), percentage of the original compound that remained [2]: 35%
IC50 (FLT3; [7]): 1320 nM
FLT3 experimental hit classification (FLT3): hit
FAK experimental hit classification (FAK; [8]): not a FAK hit
inhibition at 5 µM (FAK; inhibitor at 5 µM, average of two data points, read-out: FAK percentage of inhibition): 34%
Met. Stab. (Human), percentage of the original compound that remained [3]: 77%
increase in metabolic stability in human liver microsomes ([3]; molecule 8 vs compound 3): more than 45%

Oc1ccc(-n2nnc3ccc(NCc4ccc(F)cc4)nc32)cc1 [Compound 7, 4-[5-(4-Fluoro-benzylamino)-[1], [2], [3]triazolo[4,5-b]pyridin-3-yl]-phenol]
KIT improvement in percentage of inhibition (KIT; [9]): b (This designation indicates that the improvement in percentage of inhibition was equal or greater than 25%)
KIT experimental hit classification (KIT; hit definition % inhibition > 50, ligand at 10µM): hit
inhibition at 10 µM (KIT; inhibitor at 10 µM, average of two data points, read-out: KIT percentage of inhibition): 51%
MST1 improvement in percentage of inhibition (MST1; [9]): c (This designation indicates that the improvement in percentage of inhibition was equal or greater than 50%)
inhibition at 10 µM (MST1; [6]): 29%
JNK1 improvement in percentage of inhibition (JNK1 [5]; [9]): c (This designation indicates that the improvement in percentage of inhibition was equal or greater than 50%)
inhibition at 10 µM (JNK1 [5]; inhibitor at 10 µM, average of two data points, read-out: JNK1 percentage of inhibition): 11%
IC50 (PIM-2): 333 nM
IC50 (FLT3; [7]): 1840 nM
FLT3 experimental hit classification (FLT3): hit
inhibition at 10 µM (FAK; inhibitor at 10 µM, average of two data points, read-out: FAK percentage of inhibition): 38%
